Test results published in PubChem BioAssay AID1963868 (Molecular Pharmacology Branch, DTP, NCI, 2024).

Test system: KRAS PDC tumor spheroids (HUVEC+MSC), viability
Test: Anticancer human tumor 254851-301-R-J1-PDC patient-derived colon carcinoma cell line growth inhibition [KRAS2]
Details: for IC50: curve of first compound; for viability, T/C: stronger effect = lower value
Summary of the method: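 Combination screen of spheroid viability in tumor-cell co-cultures with endothelial (HUVEC) and mesenchymal stem cell stroma. Each agent was tested in half-log dilutions, topping at clinical Cmax or at 10 microM without a known Cmax.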

[1] = second compound 0.1 µM, first compound 0.000316 µM
[2] = second compound 0.1 µM, first compound 0.001 µM
[3] = second compound 0.1 µM, first compound 0.00316 µM
[4] = second compound 0.1 µM, first compound 0.01 µM
[5] = second compound 0.1 µM, first compound 0.0316 µM
[6] = second compound 0.1 µM, first compound 0.1 µM
[7] = second compound 0.316 µM, first compound 0.000316 µM
[8] = second compound 0.316 µM, first compound 0.001 µM
[9] = second compound 0.316 µM, first compound 0.00316 µM
[10] = second compound 0.316 µM, first compound 0.01 µM
[11] = second compound 0.316 µM, first compound 0.0316 µM
[12] = second compound 0.316 µM, first compound 0.1 µM
[13] = second compound 1 µM, first compound 0.000316 µM
[14] = second compound 1 µM, first compound 0.001 µM
[15] = second compound 1 µM, first compound 0.00316 µM
[16] = second compound 1 µM, first compound 0.01 µM
[17] = second compound 1 µM, first compound 0.0316 µM
[18] = second compound 1 µM, first compound 0.1 µM
[19] = second compound 3.16 µM, first compound 0.000316 µM
[20] = second compound 3.16 µM, first compound 0.001 µM
[21] = second compound 3.16 µM, first compound 0.00316 µM
[22] = second compound 3.16 µM, first compound 0.01 µM
[23] = second compound 3.16 µM, first compound 0.0316 µM
[24] = second compound 3.16 µM, first compound 0.1 µM
[25] = second compound 10 µM, first compound 0.0316 µM
[26] = second compound 10 µM, first compound 0.1 µM
[27] = second compound 0.0316 µM, first compound 0.0316 µM
[28] = second compound 0.0316 µM, first compound 0.1 µM
[29] = second compound 0.1 µM, first compound 0.316 µM
[30] = second compound 0.1 µM, first compound 1 µM
[31] = second compound 0.1 µM, first compound 3.16 µM
[32] = second compound 0.1 µM, first compound 10 µM
[33] = second compound 0.316 µM, first compound 0.316 µM
[34] = second compound 0.316 µM, first compound 1 µM
[35] = second compound 0.316 µM, first compound 3.16 µM
[36] = second compound 0.316 µM, first compound 10 µM
[37] = second compound 1 µM, first compound 0.316 µM
[38] = second compound 1 µM, first compound 1 µM
[39] = second compound 1 µM, first compound 3.16 µM
[40] = second compound 1 µM, first compound 10 µM
[41] = second compound 3.16 µM, first compound 0.316 µM
[42] = second compound 3.16 µM, first compound 1 µM
[43] = second compound 3.16 µM, first compound 3.16 µM
[44] = second compound 3.16 µM, first compound 10 µM
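Further: spheroids exposed to compounds for seven days before readout.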
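Wherever viability, T/C is given: 100% = DMSO vehicle control luminescence of the spheroids.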

Compound `CC(C)n1nc(-c2ccc3oc(N)nc3c2)c2c(N)ncnc21` + C=CC(=O)N1CCN(c2nc(=O)n(-c3c(C)ccnc3C(C)C)c3nc(-c4c(O)cccc4F)c(F)cc23)C(C)C1 has an IC50 (second compound 0.1 µM) of 0.0191 µM, an IC50 (second compound 0.316 µM) of 0.0216 µM and an IC50 (second compound 1 µM) of 0.0133 µM. For the same compound, the IC50 (second compound 3.16 µM) was 0.0201 µM, the IC50 (second compound 10 µM) was 0.0181 µM and the viability, T/C [1] was 107%. It also gave a viability, T/C [2] of 110%, a viability, T/C [3] of 92.8% and a viability, T/C [4] of 72.8%. It also gave a viability, T/C [5] of 32.3%, a viability, T/C [6] of 19.8% and a viability, T/C [7] of 105%. For the same compound, the viability, T/C [8] was 104%, the viability, T/C [9] was 97.7% and the viability, T/C [10] was 71.2%. It also gave a viability, T/C [11] of 39.8%, a viability, T/C [12] of 23.1% and a viability, T/C [13] of 116%. The viability, T/C [14] was 113%, the viability, T/C [15] was 102% and the viability, T/C [16] was 54.7%. It also gave a viability, T/C [17] of 34.3%, a viability, T/C [18] of 21.9% and a viability, T/C [19] of 103%. It also gave a viability, T/C [20] of 117%, a viability, T/C [21] of 89.7% and a viability, T/C [22] of 73.5%. It also gave a viability, T/C [23] of 34.7%, a viability, T/C [24] of 22.8% and a viability, T/C (second compound 10 µM, first compound 0.000316 µM) of 98.9%. For the same compound, the viability, T/C (second compound 10 µM, first compound 0.001 µM) was 109%, the viability, T/C (second compound 10 µM, first compound 0.00316 µM) was 88.5% and the viability, T/C (second compound 10 µM, first compound 0.01 µM) was 66.4%. For the same compound, the viability, T/C [25] was 35.1% and the viability, T/C [26] was 24%.

`CC1OCC2(CCN(c3cnc(Sc4ccnc(N)c4Cl)c(N)n3)CC2)C1N` (stereo not given) + C=CC(=O)N1CCN(c2nc(OCC3CCCN3C)nc3c2CCN(c2cccc4cccc(C)c24)C3)CC1CC#N was tested, and the IC50 (second compound 0.0316 µM) was > 10 µM, the IC50 (second compound 0.1 µM) was > 10 µM and the IC50 (second compound 0.316 µM) was > 10 µM. For the same compound, the IC50 (second compound 1 µM) was > 10 µM, the IC50 (second compound 3.16 µM) was > 10 µM and the viability, T/C [27] was 101%. For the same compound, the viability, T/C [28] was 99.7%, the viability, T/C (second compound 0.0316 µM, first compound 0.316 µM) was 102% and the viability, T/C (second compound 0.0316 µM, first compound 1 µM) was 85.4%. For the same compound, the viability, T/C (second compound 0.0316 µM, first compound 3.16 µM) was 77.2%, the viability, T/C (second compound 0.0316 µM, first compound 10 µM) was 75.3% and the viability, T/C [5] was 115%. For the same compound, the viability, T/C [6] was 107%, the viability, T/C [29] was 89.3% and the viability, T/C [30] was 85.3%. The viability, T/C [31] was 77.1%, the viability, T/C [32] was 83% and the viability, T/C [11] was 89.8%. For the same compound, the viability, T/C [12] was 95.6%, the viability, T/C [33] was 93.4% and the viability, T/C [34] was 84.7%. For the same compound, the viability, T/C [35] was 83.4%, the viability, T/C [36] was 72.8% and the viability, T/C [17] was 59.1%. The viability, T/C [18] was 68.1%, the viability, T/C [37] was 65.3% and the viability, T/C [38] was 69%. The viability, T/C [39] was 66.2%, the viability, T/C [40] was 64.8% and the viability, T/C [23] was 60.1%. For the same compound, the viability, T/C [24] was 58.7%, the viability, T/C [41] was 59.4% and the viability, T/C [42] was 68.5%. The viability, T/C [43] was 60.6% and the viability, T/C [44] was 58.9%.

With `CC1OCC2(CCN(c3cnc(Sc4ccnc(N)c4Cl)c(N)n3)CC2)C1N` (stereo not given) + CNCc1ccccc1-c1csc(C(C)Nc2nc(C)nc3cc(OC)c(OC)cc23)c1 the IC50 (second compound 0.1 µM) was > 10 µM, the IC50 (second compound 0.316 µM) was > 10 µM and the IC50 (second compound 1 µM) was > 10 µM. For the same compound, the IC50 (second compound 3.16 µM) was < 0.0316 µM, the IC50 (second compound 10 µM) was < 0.0316 µM and the viability, T/C [5] was 103%. For the same compound, the viability, T/C [6] was 97.3%, the viability, T/C [29] was 88.2% and the viability, T/C [30] was 76.4%. For the same compound, the viability, T/C [31] was 78.1%, the viability, T/C [32] was 74.6% and the viability, T/C [11] was 92.2%. The viability, T/C [12] was 90.9%, the viability, T/C [33] was 90.5% and the viability, T/C [34] was 81.1%. It also gave a viability, T/C [35] of 82.6%, a viability, T/C [36] of 75.3% and a viability, T/C [17] of 91.2%. The viability, T/C [18] was 88.5%, the viability, T/C [37] was 86.9% and the viability, T/C [38] was 78.7%. It also gave a viability, T/C [39] of 72.4%, a viability, T/C [40] of 67.6% and a viability, T/C [23] of 50.8%. The viability, T/C [24] was 38.7%, the viability, T/C [41] was 52.9% and the viability, T/C [42] was 30.8%. It also gave a viability, T/C [43] of 29.4%, a viability, T/C [44] of 25.9% and a viability, T/C [25] of 0.09%. For the same compound, the viability, T/C [26] was 0.09%, the viability, T/C (second compound 10 µM, first compound 0.316 µM) was 0.08% and the viability, T/C (second compound 10 µM, first compound 1 µM) was 0.09%. It also gave a viability, T/C (second compound 10 µM, first compound 3.16 µM) of 0.42% and a viability, T/C (second compound 10 µM, first compound 10 µM) of 0.17%.

`Cn1ncnc1[C@H]1c2n[nH]c(=O)c3cc(F)cc(c23)N[C@@H]1c1ccc(F)cc1` + C=CC(=O)N1CCN(c2nc(OCC3CCCN3C)nc3c2CCN(c2cccc4cccc(C)c24)C3)CC1CC#N was tested, and the IC50 (second compound 0.0316 µM) was > 0.1 µM, the IC50 (second compound 0.1 µM) was > 0.1 µM and the IC50 (second compound 0.316 µM) was > 0.1 µM. For the same compound, the IC50 (second compound 1 µM) was > 0.1 µM, the IC50 (second compound 3.16 µM) was > 0.1 µM and the viability, T/C (second compound 0.0316 µM, first compound 0.000316 µM) was 116%. The viability, T/C (second compound 0.0316 µM, first compound 0.001 µM) was 112%, the viability, T/C (second compound 0.0316 µM, first compound 0.00316 µM) was 101% and the viability, T/C (second compound 0.0316 µM, first compound 0.01 µM) was 97.4%. It also gave a viability, T/C [27] of 101%, a viability, T/C [28] of 90.9% and a viability, T/C [1] of 107%. It also gave a viability, T/C [2] of 105%, a viability, T/C [3] of 98.5% and a viability, T/C [4] of 100%. It also gave a viability, T/C [5] of 103%, a viability, T/C [6] of 100% and a viability, T/C [7] of 100%. For the same compound, the viability, T/C [8] was 104%, the viability, T/C [9] was 103% and the viability, T/C [10] was 94.8%. For the same compound, the viability, T/C [11] was 96.1%, the viability, T/C [12] was 93% and the viability, T/C [13] was 101%. The viability, T/C [14] was 106%, the viability, T/C [15] was 94.6% and the viability, T/C [16] was 88.9%. It also gave a viability, T/C [17] of 95.1%, a viability, T/C [18] of 99.8% and a viability, T/C [19] of 62.8%. For the same compound, the viability, T/C [20] was 68.4%, the viability, T/C [21] was 61.5% and the viability, T/C [22] was 47.8%. The viability, T/C [23] was 50.7% and the viability, T/C [24] was 62.9%.
